From patent US7655629B2, “Peptides and their use for the treatment of HIV infections” (priority 2002, dated 2010)
“And” between values parts separate entries of the source, which are not always exact repeats. Equal values may be shown once. “Also recorded” adds a separate entry of the source. Read-outs that look alike come from different tables or passages of the source. Positions of bridges follow the written chain, without caps; N, C: chain ends. Non-standard residues stand in square brackets, D forms with d. Residues, ends and D or L forms follow the SMILES beside them. No end group written: not given here. ξ: configuration not given here. Dip = N[C@H](C(=O)O)C(c1ccccc1)c1ccccc1; Oic(3aξ,7aξ) = O=C(O)[C@@H]1CC2CCCCC2N1; NMeL = CN[C@@H](CC(C)C)C(=O)O

B1: VIR-512 (peptide)
peptide: [NMeL]EAIPMSIPPEFLFGKPFVF

Columns and labels:
[1] = target: gp41 of HIV-1 NL4-3 (HIV-1 NL4-3); assay: cell-based or functional assay
[2] = target: gp41 of HIV-1 NL4-3 DTV (HIV-1 NL4-3 DTV); assay: cell-based or functional assay
HIV-1 NL4-3 DTV = conditions: read-out: IC50 DTV, P4-CCR5 cells, peptide 2 h before infection, readout three days after infection
Summary of the method: (§1)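 P4-CCR5 cells (CD4, CCR5, CXCR4, HIV-1 promoter-driven β-galactosidase) pretreated 2 h with peptide, then infected with virus containing 1 ng p24 antigen and incubated overnight. Cells washed and cultured without peptide; three days post-infection infectivity read by chemiluminescent β-galactosidase assay, in quintuplicate.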

X4-tropic HIV-1 NL4-3 = conditions: read-out: IC50 NL4-3; P4-CCR5 cells, HIV-1 NL4-3, peptide 2 h before infection, readout three days after infection
Summary of the method: as §1

[3] = target: T1, synthetic fusion peptide of HIV gp41 (Human immunodeficiency virus type 1 group M subtype B, UniProt P04578); assay: Inhibition of fusion peptide-induced hemolysis; type: cell-based; conditions: peptides at 1000, 100 and 10 μM preincubated with 100 μM fusion peptide, human erythrocytes, hemoglobin release
T1 construct: The fusion peptide is the very amino-terminal part of gp41 consisting of about 30 amino acid residues
Description: The synthetic fusion peptide of HIV gp41 causes concentration-dependent hemolysis which can be measured by hemoglobin released by erythrocytes.
Peptides and any other substance binding to the fusion peptide impair its potency to lyse erythrocytes by changing its structural properties. The inhibition of fusion peptide induced hemolysis was tested as follows: Blood from healthy donors was collected in citrate monovettes and the erythrocytes were extracted by a standard centrifugation and washing protocol known to the skilled person. The final erythrocyte-containing pellett was diluted 1:100 with phosphate-saline buffer. To the peptides (10, 100, or 1000 equivalents) 20 μl of a 100 μM fusion peptide solution in 10% DMSO were added and the solution was diluted to 100 μl with phosphate-buffered saline. A 60 min incubation at 37° C. was carried out. After the preincubation the samples were transferred to 96-well plates and 100 μl of the erythrocyte suspension were added and incubated for 60 min at 37° C. […] The 96-well plate is centrifuged 5 min at 2800 rpm and of the supernatant fluid 150 μl were transferred to a flat-bottom microtiter plate, and the absorbance was measured at 450 nm. The percentage hemolysis was calculated by: [(A450 of the peptide treated sample—A450 of buffer treated sample)/(A450 of Tween-20 treated sample—A450 of buffer treated sample)]×100%.

[4] = human, plasma
Description: (§2) Plasma was spiked resulting in concentrations of 40 μg/ml and stored at 37° C. At time points 0, 15, 30, 45, 60, 120, 180, 240 and 300 min samples of 20 μl were taken. The plasma was immediately mixed for precipitation with the two-fold volume of acetonitrile containing 0.15% (w/v) n-nonyl-β-D-glucopyranoside. Following centrifugation the supernatants were mixed with the two-fold volume of 0.1% (v/v) trifluroacetic acid. Twenty μl of these solutions were analyzed by LC-MS. Chromatography was performed using a gradient with the following eluents: eluent A: water containing 0.06% trifluroacetic acid (v/v), eluent B: acetonitrile/water 80:20 (v/v; with 0.05% trifluoroacetic acid; v/v). A C18 precolumn was used in combination with a C18 separation column (300 Å, 5 μm, 150×1 mm inner diameter) at a flow rate of 30 μl/min. HPLC eluates were ionized by the electrospray technique of a LCQ classic mass spectrometer. Areas of the detected peaks of the peptides of the present invention were measured and used for quantification by external calibration. The calibration curve was linear over a range from 0.5 μg/ml to 250 μg/ml plasma. Half life—defined as the period for a concentration decrease to 50% of the initial concentration—was calculated from the slope of an extrapolated curve plotting the relative peptide concentration at a given time point (logarithm scale) against the incubation time. These experiments allowed the quantitative analysis of peptide concentration in plasma.

[5] = rat, plasma
Description: as §2

[6] = dog, plasma
Description: as §2

[7] = cynomolgus monkey, plasma
Description: as §2

[8] = Acute toxicity in mice after a single intravenous injection; type: in vivo, SCID-C.B 17-mice; conditions: 927 mg per kg body weight
Description: Acute toxicity was evaluated with VIR-121 (LEAIPMSIPpEVAFNkPFVF) after a single intravenous injection into the tail vein of SCID-C.B 17-mice. A dose of 927 mg VIR-121 (SEQ ID NO. 2) dissolved in 13.6 ml 0.9 volume % sodium chloride solution per kg body weight (equivalent to 20.4 mg or 272 μL per mouse) was applied. Injection speed was dose within 15 seconds. […] As a control, 3 mice were each treated with a corresponding volume of vehicle (0.9 volume % NaCl). After 24 hours, the animals were sacrificed, dissected and inspected macroscopically. […] No findings were obtained from macroscopic necropsy compared to the control group.

[9] = system: human monocytic THP-1 cells; assay: Cytotoxicity on human cells, WST-1 assay; conditions: 24 hours, 30, 100, 300 and 1000 μg/mL
Description: The cytotoxicity of peptides of the invention was tested by evaluating the viability of human monocytic THP-1 cells. Cytotoxic effects of the peptides were tested by their influence on metabolic activity by means of the WST-1 assay (Roche Diagnostics, Germany). THP-1 cells were incubated with test peptides in a 96-well plate (approx. 25,000 cells per well) for 24 hours in RPMI-1640 medium containing 25 mM L-glutamine and 10 volume % fetal calf serum at 37° C. in an atmosphere with 5 volume % CO2. Ten μl of a WST-1 solution was added to each cavity, and incubation of THP-1 cells was allowed for 2 further hours at corresponding conditions. Metabolically active THP-1 cells reduce WST-1, a light red tetrazolium salt, yielding a soluble yellow formazan salt. The amount of reduced WST-1 correlates directly to the number of living cells, and is measured photometrically at a wavelength of λ=450 nm using a microtiter plate reader (reference wavelength is 630 nm). As a positive control, the known cytotoxic substance cycloheximide was used at a concentration of 50 μg/ml; the cytotoxicity of cycloheximide was set to 100%. […] The cytotoxicity of VIRIP peptides was calculated using the formula Viability [%]=[A450 nm (peptide)−A450 nm (cycloheximide)]/[A450 nm (negative control)−A450 nm (cycloheximide)]*100 and was correlated to the averaged viability of untreated THP-1 cells. […]

Molecule	IC50 (HIV-1 NL4-3 DTV)	IC50 (X4-tropic HIV-1 NL4-3) [nM]	inhibition of fusion peptide-induced hemolysis [3]	half-life [4] [h]	half-life [5] [h]	half-life [6] [h]	half-life [7] [h]	further results
VIR-576 (peptide)	–	–	–	–	–	–	–	IC50 NL4-3 (HIV-1 infection of P4-CCR5 cells) [1]: 107 nM; IC50 DTV (HIV-1 infection of P4-CCR5 cells) [2]: 296 nM
H-LEAIPMSIPPEVKFNKPFVF-OH [VIRIP, reference compound]	22000 nM and 22200 nM	15000	Dose dependent inhibition	53.7	1.7	35.9	5.1	–
VIRIP (peptide)	–	–	–	–	–	–	–	IC50 NL4-3 (HIV-1 infection of P4-CCR5 cells) [1]: 15000 nM; IC50 DTV (HIV-1 infection of P4-CCR5 cells) [2]: 22200 nM
CC[C@H](C)[C@H](NC(=O)[C@H](CC(=O)O)NC(=O)[C@H](CCC(=O)O)NC(=O)[C@@H](N)CC(C)C)C(=O)N1CCC[C@H]1C(=O)N[C@H]1CSSC[C@@H](C(=O)N[C@H](C(=O)N[C@@H](C)C(=O)N[C@@H](Cc2ccccc2)C(=O)N[C@@H](CC(N)=O)C(=O)N[C@@H](CCCCN)C(=O)N2CCC[C@H]2C(=O)N[C@@H](Cc2ccccc2)C(=O)N[C@H](C(=O)N[C@@H](Cc2ccccc2)C(=O)O)C(C)C)C(C)C)NC(=O)[C@H]2CCCN2C(=O)[C@@H]2CCCN2C(=O)[C@H]([C@@H](C)CC)NC(=O)[C@H](CO)NC1=O [VIR-357, LEDIPCSIPpCVAFNKPFVF] (H-LEDIPCSIP[dP]CVAFNKPFVF-OH; disulfide 6-11)	704 nM	497	–	23.3	0.6	71.5	13.2	–
CC[C@H](C)[C@H](NC(=O)[C@H](C)NC(=O)[C@H](CCC(=O)O)NC(=O)[C@@H](N)CC(C)C)C(=O)N1CCC[C@H]1C(=O)N[C@@H](CCSC)C(=O)N[C@@H](CO)C(=O)N[C@H](C(=O)N1CCC[C@H]1C(=O)N1CCC[C@@H]1C(=O)N[C@@H](CCC(=O)O)C(=O)N[C@H](C(=O)N[C@@H](C)C(=O)N[C@@H](Cc1ccccc1)C(=O)N[C@@H](CC(N)=O)C(=O)N[C@@H](CCCCN)C(=O)N1CCC[C@H]1C(=O)N[C@@H](Cc1ccccc1)C(=O)N[C@H](C(=O)N[C@@H](Cc1ccccc1)C(=O)O)C(C)C)C(C)C)[C@@H](C)CC [VIR-121, LEAIPMSIPpEVAFNKPFVF] (H-LEAIPMSIP[dP]EVAFNKPFVF-OH)	1790 nM	370	–	–	–	–	–	changes of behaviour ([8]; 24 hours observation): No changes of behaviour; macroscopic necropsy / pathological examination ([8]; sacrificed after 24 hours): did not reveal any abnormalities; also recorded: No findings; clinical signs (motility, dyspnea, ataxia, muscle tone) ([8]; tail vein, 24 hours observation): no signs of reduced or increased motility, dyspnea, ataxia, nor a reduced or increased muscle tone
CC[C@H](C)[C@H](NC(=O)[C@H](C)NC(=O)[C@H](CCC(=O)O)NC(=O)[C@@H](N)CC(C)C)C(=O)N1CCC[C@H]1C(=O)N[C@@H](CCSC)C(=O)N[C@H]1CSSC[C@@H](C(=O)N[C@@H](Cc2ccccc2)C(=O)N[C@@H](Cc2ccccc2)C(=O)N[C@@H](CC(N)=O)C(=O)N[C@@H](CCCCN)C(=O)N2CCC[C@H]2C(=O)N[C@@H](Cc2ccccc2)C(=O)N[C@H](C(=O)N[C@@H](Cc2ccccc2)C(=O)O)C(C)C)NC(=O)[C@H](CCC(=O)O)NC(=O)[C@@H]2CCCN2C(=O)[C@@H]2CCCN2C(=O)[C@H]([C@@H](C)CC)NC1=O [VIR-273] (H-LEAIPMCIPPECFFNKPFVF-OH; disulfide 7-12)	1100 nM	332	–	4.2	0.1	12.4	3.6	–
CC[C@H](C)[C@H](NC(=O)[C@H](C)NC(=O)[C@H](CCC(=O)O)NC(=O)[C@@H](N)CC(C)C)C(=O)N1CCC[C@H]1C(=O)N[C@@H](CCSC)C(=O)N[C@@H](CO)C(=O)N[C@H](C(=O)N1CCC[C@H]1C(=O)N1CCC[C@@H]1C(=O)N[C@@H](CCC(=O)O)C(=O)N[C@H](C(=O)N[C@@H](C)C(=O)N[C@@H](Cc1ccccc1)C(=O)N[C@@H](CC(N)=O)C(=O)N[C@@H](CCCCN)C(=O)N1CCC[C@H]1C(=O)N[C@@H](Cc1ccccc1)C(=O)N[C@H](C(=O)N[C@@H](Cc1ccccc1)C(=O)O)C(C)C)C(c1ccccc1)c1ccccc1)[C@@H](C)CC [VIR-261, LEAIPMSIPpE(3,3-diphenylalanine)AFNKPFVF] (H-LEAIPMSIP[dP]E[Dip]AFNKPFVF-OH)	1030 nM	538	–	7	0.2	15.1	6.5	–
CC[C@H](C)[C@H](NC(=O)[C@H](C)NC(=O)[C@H](CCC(=O)O)NC(=O)[C@@H](N)CC(C)C)C(=O)N1CCC[C@H]1C(=O)N[C@@H](CCSC)C(=O)N[C@@H](CO)C(=O)N[C@H](C(=O)N1CCC[C@H]1C(=O)N1CCC[C@@H]1C(=O)N[C@@H](CCC(=O)O)C(=O)N[C@H](C(=O)N[C@@H](C)C(=O)N[C@@H](Cc1ccccc1)C(=O)N[C@@H](CC(N)=O)C(=O)N[C@@H](CCCCN)C(=O)N1C2CCCCC2C[C@H]1C(=O)N[C@@H](Cc1ccccc1)C(=O)N[C@H](C(=O)N[C@@H](Cc1ccccc1)C(=O)O)C(C)C)C(C)C)[C@@H](C)CC (stereo partly shown) [VIR-269, LEAIPMSIPpEVAFNK(Oic)FVF] (H-LEAIPMSIP[dP]EVAFNK[Oic(3aξ,7aξ)]FVF-OH)	900 nM	2610	Dose dependent inhibition	–	–	–	–	–
CC[C@H](C)[C@H](NC(=O)[C@H](C)NC(=O)[C@H](CCC(=O)O)NC(=O)[C@@H](N)CC(C)C)C(=O)N1CCC[C@H]1C(=O)N[C@H]1CSSC[C@@H](C(=O)N[C@@H](Cc2ccccc2)C(=O)N[C@@H](C)C(=O)N[C@@H](Cc2ccccc2)C(=O)N[C@@H](CC(N)=O)C(=O)N[C@@H](CCCCN)C(=O)N2CCC[C@H]2C(=O)N[C@@H](Cc2ccccc2)C(=O)N[C@H](C(=O)N[C@@H](Cc2ccccc2)C(=O)O)C(C)C)NC(=O)[C@@H]2CCCN2C(=O)[C@@H]2CCCN2C(=O)[C@H]([C@@H](C)CC)NC(=O)[C@H](CO)NC1=O [VIR-165]	140 nM	–	Dose dependent inhibition	–	–	–	–	cytotoxic effect on THP-1 cells [9]: free of any cytotoxic effect; also recorded: did not exhibit a cytotoxic effect
H-LEAIPMSIPPEFLFGKPFVF-OH [VIR-175]	300 nM	225	Dose dependent inhibition	5.3	0.2	17.3	3	–
B1	–	–	–	–	–	–	–	IC50 NL4-3 (HIV-1 infection of P4-CCR5 cells) [1]: 138 nM; IC50 DTV (HIV-1 infection of P4-CCR5 cells) [2]: 615 nM
